We go through 8 molecules from publication PMC7477889 (SLAS discovery : advancing life sciences R & D, 2020).

What is called EC50 is the concentration that produces a half-maximal response.

Each structure is given as a SMILES string. Entries after “also recorded” stand apart in the source; their conditions may differ. Read-outs that look alike come from different tables or passages of the source.

One assay deals with GFP-AR. To be noted: read-out: Nuclear Translocation EC50, cited from earlier work.
The test system of assay [1] is GFP-PRER (chimeric progesterone receptor with ERα DBD). To be noted: result in words; cited from earlier work.
The target of assay [2] is T1, GFP-ARER (chimeric androgen receptor with ERα DBD) (Homo sapiens, UniProt P10275, A574V/A587S/A588I/A597P/A623V/C570Y/D601Q/DEL544-554/E566Y/E589Q/F607N/G564N/G578E/I562V/K558R/K591H/K593D/L561A/L575W/L595M/L627K/N611S/P555K/P556E/P613Q/Q557T/Q592N/R599T/S579G/S598A/S614A/T542S/T559Y/T576S/T626M/V582A).
T1 sequence (P10275 with tags, fused parts or gaps T542S/DEL544-554/P555K/P556E/Q557T/K558R/T559Y/L561A/I562V/G564N/E566Y/C570Y/A574V/L575W/T576S/G578E/S579G/V582A/A587S/A588I/E589Q/K591H/Q592N/K593D/L595M/A597P/S598A/R599T/D601Q/F607N/N611S/P613Q/S614A/A623V/T626M/L627K): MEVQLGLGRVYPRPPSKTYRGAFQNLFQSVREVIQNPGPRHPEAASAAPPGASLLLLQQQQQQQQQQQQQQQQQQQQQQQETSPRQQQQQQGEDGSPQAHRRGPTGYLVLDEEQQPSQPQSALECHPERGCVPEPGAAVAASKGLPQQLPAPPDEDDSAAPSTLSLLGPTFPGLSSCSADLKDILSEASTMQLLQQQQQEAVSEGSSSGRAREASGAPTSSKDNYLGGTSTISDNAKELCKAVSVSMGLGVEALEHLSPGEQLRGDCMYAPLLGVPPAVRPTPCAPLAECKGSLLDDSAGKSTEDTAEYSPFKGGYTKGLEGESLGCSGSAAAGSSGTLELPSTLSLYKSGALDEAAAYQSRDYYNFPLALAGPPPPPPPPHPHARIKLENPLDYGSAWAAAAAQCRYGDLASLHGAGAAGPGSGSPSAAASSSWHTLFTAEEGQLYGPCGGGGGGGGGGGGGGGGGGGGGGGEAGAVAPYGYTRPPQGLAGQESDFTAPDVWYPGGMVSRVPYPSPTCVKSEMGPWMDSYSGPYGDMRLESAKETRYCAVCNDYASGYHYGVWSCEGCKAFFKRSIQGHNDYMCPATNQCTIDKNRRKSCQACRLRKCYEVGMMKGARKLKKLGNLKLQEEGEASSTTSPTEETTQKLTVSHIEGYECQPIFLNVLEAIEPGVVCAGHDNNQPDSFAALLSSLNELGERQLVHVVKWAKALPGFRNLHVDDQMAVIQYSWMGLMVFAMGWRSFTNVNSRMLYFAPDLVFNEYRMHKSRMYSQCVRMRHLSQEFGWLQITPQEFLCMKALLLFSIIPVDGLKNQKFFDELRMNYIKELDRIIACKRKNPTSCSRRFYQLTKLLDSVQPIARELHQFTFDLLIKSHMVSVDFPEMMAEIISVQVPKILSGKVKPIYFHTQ
The assay can be described thus: GFP-ARER:PRL-HeLa high content analysis assay. Format: cell-based.

Setting [3] is: AUC normalized to vehicle and DHT controls, result in words.
The mark [4] stands for this setting: GFP-ARER:PRL-HeLa, 2 hours, result in words.

Take `CC(O)(CS(=O)(=O)c1ccc(F)cc1)C(=O)Nc1ccc(C#N)c(C(F)(F)F)c1` (stereo not shown) [Bicalutamide, bicalutamide]: the EC50 in the assay with GFP-AR is […].

Consider `C[C@]12CCC(=O)C[C@@H]1CC[C@@H]1[C@@H]2CC[C@]2(C)[C@@H](O)CC[C@@H]12` [DHT, 5α-dihydrotestosterone], for which the concentration giving a half-maximal response (EC50) with GFP-AR (GFP-AR:HeLa) is 11 ± 2 nM.

`CC#C[C@]1(O)CC[C@H]2[C@@H]3CCC4=CC(=O)CCC4=C3[C@@H](c3ccc(N(C)C)cc3)C[C@@]21C` [RU486]: the “visible chromatin binding in the GFP-PRER:PRL-HeLa cell model” value in assay [1] is “induces visible chromatin binding”.

In the case of `CN(C)c1ccc([C@H]2C[C@]3(C)[C@@H](CC[C@]3(O)CCCO)[C@@H]3CCC4=CC(=O)CCC4=C32)cc1` [ZK98299], in assay [1], the “visible chromatin binding in the GFP-PRER:PRL-HeLa cell model” value is recorded as “does not”.

Regarding `C[C@]12CC[C@@H]3c4ccc(O)cc4CC[C@H]3[C@@H]1CCC2=O` [estrone], in assay [2] (setting [3]), the “AUC score for nuclear translocation, chromatin binding, and receptor stabilization (k-means cluster)” value is “low/moderate AUC score”. Moreover, in assay [2] (setting [4]), the GFP-ARER nuclear translocation result was “strongest responders” and the “visible chromatin binding (PRL array spot) by GFP-ARER” value is listed as “induce a visible spot indicating chromatin binding”.

Regarding `CC(C)(O)C(=O)Nc1ccc([N+](=O)[O-])c(C(F)(F)F)c1` [hydroxyflutamide], in assay [2], the GFP-ARER nuclear translocation result is on record as “strongest responders; also recorded: induced GFP-ARER nuclear translocation”, the “nuclear translocation AUC score (k-means Cluster 3)” value is on record as “stronger AUC scores” and the “visible chromatin binding (PRL array spot) by GFP-ARER” value is “undetectable evidence of chromatin binding”.

Regarding `CC12CC1(C)C(=O)N(c1cc(Cl)cc(Cl)c1)C2=O` (stereo not shown) [promycidone, procymidone], the “nuclear translocation AUC score (k-means Cluster 3)” value in assay [2] (setting [3]) is given as “stronger AUC scores”. The GFP-ARER nuclear translocation result in assay [2] (setting [4]) is given as “strongest responders”.

As for `Cc1cc(C(C)(C)c2cc(C)c(O)c(C)c2)cc(C)c1O` [tetramethyl-bisphenol A], in assay [2] (supplemented ATSDR chemicals and mixtures, 0.1 nM to 10 μM (chemicals), 200-fold to 200,000-fold dilution (mixtures), 2 hours), the nuclear translocation response is 10-12 % of DHT response.
